# Test results from patent US20250171420A1 (Monte Rosa Therapeutics, Inc., priority 2022, published 2025).
# Columns and labels:
# [1] = target: T1, CK1α (Homo sapiens, UniProt P48729+Q96SW2); assay: Western blot of CK1α levels in HEK293 and HEK293 CRBN knock out cells; type: cell-based; settings: 0.1, 1, 10 μM, 24 hours, FIG. 1
# T1 construct: HEK293 clonal lines with CRISPR KI HiBiT tag on CSNK1A1
# Protocol: HEK293 cell line was purchased from ATCC (CRL-1573). HEK293 CRBN knock out (k/o) cell line (B2) was generated internally using CRISPR/Cas9 method and clonally expanded. Cells were plated at 2×10^5 cells per well in 6-well tissue culture plates (VWR) in 2 ml of DMEM media (Gibco) containing 10% FBS (Gibco), and incubated for 16 hours at 37° C., 5% CO2. Compounds were added to final concentration of 0.1 μM, 1 μM, 10 μM (DMSO concentration was kept constant at 0.1%), following incubation at 37° C., 5% CO2 for additional 24 hours. Cell lysis was performed using RIPA buffer (Pierce) containing Halt™ Protease Inhibitor Cocktail (ThermoFisher Scientific). Lysates were boiled at 95° C. for 10 minutes and 12 μg of protein lysate per sample was resolved by SDS-PAGE using 12% gels (BioRad) and transferred to nitrocellulose membrane (BioRad). Membranes were blocked using LI-COR blocking buffer (LI-COR) at room temperature for 1 hour, followed by overnight incubation with rabbit anti-CK1α (Abcam ab206652), rabbit anti-CRBN (Sigma HPA045910) and mouse anti-α-tubulin (Sigma T9026) antibodies at 4° C. Secondary antibodies (LI-COR) were added for 1 hour at room temperature, followed by imaging with LI-COR imaging system Odyssey® CLx.
# [2] = target: CRBN/DDB1 (Homo sapiens, UniProt Q96SW2); assay: HTRF binding assay (displacement of Cy5-thalidomide probe from CRBN/DDB1); settings: CRBN/DDB1 2.5 nM, Cy5-Thalidomide 100 nM, 30 min; geometric mean; read-out: HTRF_Thali_Disp_DR_geo_IC50
# CRBN/DDB1, sequence (Q96SW2 whole entry, species assumed): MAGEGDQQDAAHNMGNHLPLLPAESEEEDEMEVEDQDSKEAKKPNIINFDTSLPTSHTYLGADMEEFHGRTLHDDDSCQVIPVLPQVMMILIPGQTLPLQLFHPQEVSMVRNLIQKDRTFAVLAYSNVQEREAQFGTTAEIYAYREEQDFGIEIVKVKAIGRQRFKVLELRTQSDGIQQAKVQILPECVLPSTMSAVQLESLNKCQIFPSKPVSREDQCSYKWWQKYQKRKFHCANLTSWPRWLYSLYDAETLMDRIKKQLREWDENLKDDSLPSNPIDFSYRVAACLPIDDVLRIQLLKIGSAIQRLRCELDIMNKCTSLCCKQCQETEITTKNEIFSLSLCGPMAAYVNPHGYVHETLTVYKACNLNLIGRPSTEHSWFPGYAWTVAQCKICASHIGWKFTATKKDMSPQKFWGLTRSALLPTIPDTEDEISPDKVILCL
# CRBN/DDB1, sequence (Q16531 whole entry partner, species assumed): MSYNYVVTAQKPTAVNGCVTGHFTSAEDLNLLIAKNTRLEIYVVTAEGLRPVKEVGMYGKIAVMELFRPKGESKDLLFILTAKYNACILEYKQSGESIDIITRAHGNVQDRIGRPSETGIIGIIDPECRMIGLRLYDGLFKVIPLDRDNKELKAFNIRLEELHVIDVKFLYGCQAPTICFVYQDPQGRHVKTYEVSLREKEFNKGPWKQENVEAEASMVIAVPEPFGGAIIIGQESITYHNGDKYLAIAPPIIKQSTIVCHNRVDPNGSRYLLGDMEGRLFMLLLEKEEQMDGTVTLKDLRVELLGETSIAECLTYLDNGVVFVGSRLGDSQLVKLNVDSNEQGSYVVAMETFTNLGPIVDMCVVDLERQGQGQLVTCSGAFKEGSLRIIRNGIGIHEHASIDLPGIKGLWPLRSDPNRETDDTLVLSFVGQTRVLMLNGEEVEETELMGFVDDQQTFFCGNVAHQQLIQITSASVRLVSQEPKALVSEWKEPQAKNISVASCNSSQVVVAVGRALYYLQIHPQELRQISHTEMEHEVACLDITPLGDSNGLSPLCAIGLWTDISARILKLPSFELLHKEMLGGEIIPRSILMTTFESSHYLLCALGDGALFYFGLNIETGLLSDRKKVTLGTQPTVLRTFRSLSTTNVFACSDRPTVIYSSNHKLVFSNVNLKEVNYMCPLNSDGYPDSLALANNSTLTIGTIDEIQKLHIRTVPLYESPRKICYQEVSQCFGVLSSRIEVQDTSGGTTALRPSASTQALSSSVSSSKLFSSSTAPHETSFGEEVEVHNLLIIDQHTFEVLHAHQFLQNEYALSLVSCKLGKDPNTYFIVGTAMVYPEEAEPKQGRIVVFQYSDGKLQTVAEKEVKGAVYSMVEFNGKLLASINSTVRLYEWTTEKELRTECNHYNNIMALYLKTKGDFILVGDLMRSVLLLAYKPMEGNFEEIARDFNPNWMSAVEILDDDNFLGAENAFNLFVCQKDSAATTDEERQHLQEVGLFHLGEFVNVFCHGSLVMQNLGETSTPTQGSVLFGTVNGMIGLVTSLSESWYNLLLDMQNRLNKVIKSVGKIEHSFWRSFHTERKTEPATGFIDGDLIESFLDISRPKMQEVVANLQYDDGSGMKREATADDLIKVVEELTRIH
# Summary of the method: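 HTRF displacement of Cy5-thalidomide (100 nM) from His-tagged CRBN/DDB1 (2.5 nM) with anti-His Tb cryptate in 20 mM HEPES, 20 mM NaCl, 0.2 mM TCEP, 0.2 mM EDTA, 0.005% Tween20. 10-point 1:3 series, 30 min ambient. 665/620 nm ratio fitted 4-parameter for IC50; Ki by Cheng-Prusoff from geometric-mean IC50.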
# T1 sequence (P48729 whole entry): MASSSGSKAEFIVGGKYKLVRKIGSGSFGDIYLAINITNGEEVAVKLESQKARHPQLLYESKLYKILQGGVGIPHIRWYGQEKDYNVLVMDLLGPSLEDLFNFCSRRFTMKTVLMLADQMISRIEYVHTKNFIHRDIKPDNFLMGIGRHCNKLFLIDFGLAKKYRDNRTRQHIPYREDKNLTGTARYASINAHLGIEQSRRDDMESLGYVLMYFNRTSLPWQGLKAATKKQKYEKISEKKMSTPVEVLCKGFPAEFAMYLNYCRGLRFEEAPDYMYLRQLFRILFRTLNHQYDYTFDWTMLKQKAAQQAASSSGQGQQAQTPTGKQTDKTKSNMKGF
# T1 sequence (Q96SW2 whole entry): as the sequence (Q96SW2 whole entry, species assumed) above
# T1 sequence (Q16531 2-1140 partner limits assumed): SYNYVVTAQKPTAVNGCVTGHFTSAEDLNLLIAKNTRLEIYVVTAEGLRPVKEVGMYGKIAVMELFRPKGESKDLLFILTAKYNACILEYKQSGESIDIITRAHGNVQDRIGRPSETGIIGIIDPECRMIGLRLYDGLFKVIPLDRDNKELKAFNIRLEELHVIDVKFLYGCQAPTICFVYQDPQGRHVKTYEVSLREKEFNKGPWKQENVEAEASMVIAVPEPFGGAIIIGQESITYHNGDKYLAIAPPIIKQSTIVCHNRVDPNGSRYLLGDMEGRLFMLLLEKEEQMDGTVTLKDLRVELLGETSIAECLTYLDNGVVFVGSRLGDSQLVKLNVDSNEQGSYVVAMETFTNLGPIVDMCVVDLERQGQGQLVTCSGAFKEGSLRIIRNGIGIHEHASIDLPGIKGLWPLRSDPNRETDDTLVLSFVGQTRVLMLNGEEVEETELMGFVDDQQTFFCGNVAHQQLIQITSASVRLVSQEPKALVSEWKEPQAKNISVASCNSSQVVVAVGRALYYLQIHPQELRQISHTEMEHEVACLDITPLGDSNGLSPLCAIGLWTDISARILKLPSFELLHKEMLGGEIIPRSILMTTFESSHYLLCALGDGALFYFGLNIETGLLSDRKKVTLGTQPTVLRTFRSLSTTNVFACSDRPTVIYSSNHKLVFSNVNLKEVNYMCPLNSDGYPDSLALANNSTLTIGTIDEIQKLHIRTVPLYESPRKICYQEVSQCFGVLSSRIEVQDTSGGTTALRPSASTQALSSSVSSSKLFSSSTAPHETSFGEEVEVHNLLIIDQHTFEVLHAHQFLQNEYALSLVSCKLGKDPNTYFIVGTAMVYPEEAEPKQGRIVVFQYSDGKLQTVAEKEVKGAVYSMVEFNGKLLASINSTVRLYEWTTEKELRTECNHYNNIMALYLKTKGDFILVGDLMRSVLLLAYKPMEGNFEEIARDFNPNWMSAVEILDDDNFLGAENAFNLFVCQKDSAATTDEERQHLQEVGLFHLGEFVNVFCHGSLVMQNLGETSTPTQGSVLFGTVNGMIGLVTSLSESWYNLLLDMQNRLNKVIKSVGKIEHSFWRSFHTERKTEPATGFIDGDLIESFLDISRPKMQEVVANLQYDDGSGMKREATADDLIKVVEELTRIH
smiles,measurement,setting,value
"C[C@@H]1Cc2ccccc2N1C(=O)Nc1ccc2c(c1)CN(C1CCC(=O)NC1=O)C2=O (stereo partly drawn) [Compound 102, (2R)—N-(2-(2,6-dioxopiperidin-3-yl)-1-oxoisoindolin-5-yl)-2-methylindoline-1-carboxamide]",effect on CK1a levels in HEK293 cell line,"[1]; HEK293, cereblon present",decreases CK1a levels
same,effect on CK1a levels in cereblon (CRBN) knock-out HEK293 cell line,[1]; HEK293 CRBN knock-out,no effect on CK1a levels
same,IC50,[2],100 to 1000 nM
